How the values were obtained:
[1] = target: T1, Sigma non-opioid intracellular receptor 1 (Rattus norvegicus, UniProt Q9R0C9); experiment: Tested for its binding affinity towards sigma-1 site in rat brain using E3H1-(+)-SKF 10047 as radioligand in rat brain; format: tissue-based
[2] = target: Sigma non-opioid intracellular receptor 1 (Rattus norvegicus) (UniProt Q9R0C9); experiment: Ratio between the Ki values of sigma-2 and sigma-1 receptors
[3] = Ratio between the Ki values of m1 and sigma-1 receptors
[4] = target: T2, Muscarinic acetylcholine receptor M2 (Homo sapiens, UniProt P08172); experiment: Binding affinity towards muscarinic m2 receptor
T2 sequence (P08172 whole entry): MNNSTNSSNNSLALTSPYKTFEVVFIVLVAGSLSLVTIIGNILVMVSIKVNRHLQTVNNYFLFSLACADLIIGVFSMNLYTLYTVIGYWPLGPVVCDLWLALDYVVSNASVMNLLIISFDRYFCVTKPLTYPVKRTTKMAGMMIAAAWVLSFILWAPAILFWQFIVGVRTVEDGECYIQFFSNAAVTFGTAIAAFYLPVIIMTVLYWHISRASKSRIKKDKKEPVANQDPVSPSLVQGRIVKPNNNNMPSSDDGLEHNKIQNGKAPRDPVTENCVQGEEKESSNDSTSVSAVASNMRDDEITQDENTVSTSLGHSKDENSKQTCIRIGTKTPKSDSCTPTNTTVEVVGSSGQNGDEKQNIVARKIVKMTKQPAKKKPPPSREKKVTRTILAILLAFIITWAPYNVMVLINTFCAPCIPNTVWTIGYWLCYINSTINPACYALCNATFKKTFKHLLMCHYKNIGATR

Glutamate NMDA receptor = experiment: Binding affinity towards PCP (1-(1-phenylcyclohexyl)piperidine) receptor.; format: protein-complex assay
Sigma 2 receptor [5] = experiment: Tested for its binding affinity towards sigma-2 site in rat brain using [3H]DTG as radioligand; format: tissue-based
[6] = target: T3, Muscarinic acetylcholine receptor M1 (Homo sapiens, UniProt P11229); experiment: Binding affinity towards muscarinic m1 receptor
T3 sequence (P11229 whole entry): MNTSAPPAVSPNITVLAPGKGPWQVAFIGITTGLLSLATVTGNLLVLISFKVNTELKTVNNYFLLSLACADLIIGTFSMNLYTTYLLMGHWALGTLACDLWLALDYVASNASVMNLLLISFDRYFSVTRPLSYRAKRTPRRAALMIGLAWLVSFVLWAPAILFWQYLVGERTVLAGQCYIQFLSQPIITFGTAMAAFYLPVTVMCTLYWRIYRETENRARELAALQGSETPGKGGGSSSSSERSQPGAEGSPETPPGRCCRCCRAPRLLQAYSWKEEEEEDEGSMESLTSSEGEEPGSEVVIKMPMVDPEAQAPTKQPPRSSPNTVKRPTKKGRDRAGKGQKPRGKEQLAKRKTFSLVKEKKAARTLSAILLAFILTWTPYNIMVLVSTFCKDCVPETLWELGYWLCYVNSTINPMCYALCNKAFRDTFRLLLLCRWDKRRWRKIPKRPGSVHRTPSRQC

[7] = target: T1, Sigma non-opioid intracellular receptor 1; experiment: Tested for its binding affinity towards sigma-1 site in rat brain, using [3H]DTG as radioligand; format: tissue-based
[8] = target: T1, Sigma non-opioid intracellular receptor 1; experiment: Tested for its binding affinity towards sigma-1 site in rat brain, using [3H]-(+)-SKF- 10047 as radioligand; format: tissue-based
[9] = target: T1, Sigma non-opioid intracellular receptor 1; experiment: Tested for its binding affinity towards sigma-1 site using E3H1-(+)-SKF 10047 as radioligand in rat brain; format: tissue-based
Sigma 2 receptor [10] = experiment: Tested for its binding affinity towards sigma-2 site using [3H]-DTG as radioligand

Sigma non-opioid intracellular receptor 1 (Rattus norvegicus), sequence (Q9R0C9 whole entry): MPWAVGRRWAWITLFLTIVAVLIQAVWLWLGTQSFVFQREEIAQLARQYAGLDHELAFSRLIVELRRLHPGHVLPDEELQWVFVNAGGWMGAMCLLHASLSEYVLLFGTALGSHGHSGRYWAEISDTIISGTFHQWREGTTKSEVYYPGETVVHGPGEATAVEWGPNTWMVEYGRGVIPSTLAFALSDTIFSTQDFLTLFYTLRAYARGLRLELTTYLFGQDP
T1 sequence (Q9R0C9 whole entry): as above

| SMILES | Ki [1] [nM] | Ratio [2] | Ratio [3] | Ki [4] [nM] | Ki (Glutamate NMDA receptor) | Ki (Sigma 2 receptor [5]) [nM] | Ki [6] [nM] | Ki [7] [nM] | Ki [8] [nM] | Ki [9] [nM] | Ki (Sigma 2 receptor [10]) [nM] |
| --- | --- | --- | --- | --- | --- | --- | --- | --- | --- | --- | --- |
| CCN(CC)CCOCOC(=O)C1(c2ccc(Cl)c(Cl)c2)CCCCC1 | 22 | 30 | 0.9 | 22 | Not Active | 667 | 20 | – | – | – | – |
| CCN(CC)CCOCCOC(=O)C1(c2ccccc2)CCCC1 [CARBETAPENTANE] | – | – | – | 167 | Not Active | – | 76 | – | – | – | – |
| c1ccc(CCCCCNCCCCc2ccccc2)cc1 | – | – | – | – | – | – | – | 2 | – | – | – |
| CCN(CC)CCOCCOC(=O)C(C)c1ccccc1 (stereo unspecified) | 40 | 78 | > 250 | > 10000 | Not Active | 3110 | > 10000 | – | – | – | – |
| CCN(CC)CCOCCN(C)CC1(c2ccccc2)CCCC1 | 34 | 32 | 25 | 1570 | Not Active | 1100 | 843 | – | – | – | – |
| CCN(CC)CCOCCOCC1(c2ccccc2)CCCC1 | 27 | 17 | 34 | 844 | Not Active | 463 | 910 | – | – | – | – |
| CCN(CC)CCOCCOC(=O)C1(c2ccccc2)CC1 | 45 | 65 | > 220 | > 10000 | Not Active | 2910 | > 10000 | – | – | – | – |
| CCN(CC)CCOCNC(=O)C1(c2ccc(Cl)c(Cl)c2)CCCCC1 | 27 | 20 | 22 | 500 | Not Active | 527 | 581 | – | – | – | – |
| O=C(OCOCCN1CCOCC1)C1(c2ccc(Cl)c(Cl)c2)CCCCC1 | 39 | 25 | 80 | 1190 | Not Active | 981 | 3110 | – | – | – | – |
| CCN(CC)CCOCCOC(=O)C1(c2ccccc2)CCCCC1 | 34 | 23 | 4 | 145 | Not Active | 780 | 135 | – | – | – | – |
| O=C(OCOCCN1CCCC1)C1(c2ccc(Cl)c(Cl)c2)CCCCC1 | 32 | 22 | 2 | 74 | Not Active | 688 | 63 | – | – | – | – |
| CCN(CC)CCOCCOC(=O)C1(c2ccc(OC)cc2)CCCC1 | 59 | 25 | 18 | 692 | – | 1500 | 1060 | – | – | – | – |
| CCN(CC)CCOCCOC(=O)C1(c2ccc(Cl)cc2)CCCC1 | 24 | 27 | 3.1 | 97 | Not Active | 648 | 75 | – | – | – | – |
| CCN(CC)CCOCCNC(=O)C1(c2ccccc2)CCCC1 | 215 | 13 | > 46 | 4900 | Not Active | 2840 | > 10000 | – | – | – | – |
| Cc1ccccc1NC(=N)Nc1ccccc1C [DITOLYLGUANIDINE] | – | – | – | – | Not Active | – | – | – | – | – | – |
| CCN(CC)CCOCCNCC1(c2ccccc2)CCCC1 | 884 | 1.2 | 1.9 | 2270 | Not Active | 1100 | 1700 | – | – | – | – |
| O=C(OCCN1CCOCC1)C1(c2ccccc2)CCCCC1 | – | – | – | – | – | – | – | – | 44 | – | – |
| C=CCN1CCC2c3cc(O)ccc3CC1C2C (stereo unspecified) | – | – | – | – | Not Active | – | – | – | – | 67 | 44 |
| O=C(NCOCCN1CCOCC1)C1(c2ccc(Cl)c(Cl)c2)CCCCC1 | 32 | 51 | > 310 | > 10000 | Not Active | 1640 | > 10000 | – | – | – | – |

Source: ChEMBL document CHEMBL1127585, “Novel 1-phenylcycloalkanecarboxylic acid derivatives are potent and selective sigma 1 ligands” (J Med Chem, 1994)
